US12692254B2, “Benzimidazole inhibitors of PAD enzymes” (BRISTOL-MYERS SQUIBB COMPANY, priority 2018, dated 2026)

Biological target: human PAD4 (hPAD4) (Homo sapiens, UniProt Q9UM07)
Test: RFMS human PAD4 functional assay (rapid-fire mass spectrum)
Assay type: biochemical
Settings: 5 nM hPAD4 enzyme, 250 μM BAEE, 50 μM Calcium; 30 min preincubation, 90 min reaction at 37° C.
How it was run: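 PAD4 (10 nM) preincubated 30 min with compound (top final 50 μM), then BAEE substrate added in pH 7.5 HEPES buffer with DTT, 50 μM calcium, TPEN; 90 min at 37° C. After TCA quench, citrulline derivatized with phenyl glyoxal (4 mM final, 30 min, 37° C) and quantified by RapidFire MS against internal standard.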

Sequence of human PAD4 (hPAD4) (Q9UM07 whole entry): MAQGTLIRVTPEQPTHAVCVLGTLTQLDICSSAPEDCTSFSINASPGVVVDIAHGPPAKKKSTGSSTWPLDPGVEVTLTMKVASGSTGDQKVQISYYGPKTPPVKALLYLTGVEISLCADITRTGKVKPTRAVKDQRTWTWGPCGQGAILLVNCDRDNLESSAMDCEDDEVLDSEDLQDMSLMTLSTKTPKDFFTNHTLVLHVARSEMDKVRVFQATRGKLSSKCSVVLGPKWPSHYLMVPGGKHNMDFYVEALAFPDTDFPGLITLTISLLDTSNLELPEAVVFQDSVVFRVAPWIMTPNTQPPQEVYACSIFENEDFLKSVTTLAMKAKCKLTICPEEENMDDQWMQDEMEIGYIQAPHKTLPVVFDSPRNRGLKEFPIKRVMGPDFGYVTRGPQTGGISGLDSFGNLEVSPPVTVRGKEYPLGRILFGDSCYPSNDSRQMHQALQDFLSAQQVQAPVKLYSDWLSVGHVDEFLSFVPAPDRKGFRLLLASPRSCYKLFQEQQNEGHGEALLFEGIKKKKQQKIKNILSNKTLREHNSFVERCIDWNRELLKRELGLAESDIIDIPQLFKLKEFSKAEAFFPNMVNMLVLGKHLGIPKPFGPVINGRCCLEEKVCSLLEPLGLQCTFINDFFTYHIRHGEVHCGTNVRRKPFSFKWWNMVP

IC50 [nM] | Molecule
603 | COc1cc(C(=O)N2CC3CCC2[C@@H]3N)cc2nc(-c3cc4cccnc4n3CC3CC3)n([C@H]3C[C@H](NC(=O)c4cc[nH]c(=O)c4)C3)c12 (stereo partly drawn) [Example 299, 2-oxo-N-[(1r,3r)-3-{5-[(1R,4R,7R)-7-amino-2-azabicyclo[2.2.1]heptane-2-carbonyl]-2-[1-(cyclopropylmethyl)-1H-pyrrolo[2,3-b]pyridin-2-yl]-7-methoxy-1H-1,3-benzodiazol-1-yl}cyclobutyl]-1,2-dihydropyridine-4-carboxamide]
23 | COc1cc(C(=O)N2CC3CCC2[C@@H]3N)cc2nc(-c3cc4ccccc4n3CC3CC3)n(Cc3cnn(-c4cnc(O)c(F)c4)c3)c12 (stereo partly drawn) [Example 357, 5-[4-({5-[(7R)-7-amino-2-azabicyclo[2.2.1]heptane-2-carbonyl]-2-[1-(cyclopropylmethyl)-1H-indol-2-yl]-7-methoxy-1H-1,3-benzodiazol-1-yl}methyl)-1H-pyrazol-1-yl]-3-fluoropyridin-2-ol]
141 | COc1cc(C(=O)N2C[C@H]3CC[C@@H]2[C@@H]3N)cc2nc(-c3cc4cccnc4n3CC3CC3)n(C3CN(C(=O)c4cnc(C#N)nc4)C3)c12 [Example 102, 5-(3-{5-[(1R,4R,7R)-7-amino-2-azabicyclo[2.2.1]heptane-2-carbonyl]-2-[1-(cyclopropylmethyl)-1H-pyrrolo[2,3-b]pyridin-2-yl]-7-methoxy-1H-1,3-benzodiazol-1-yl}azetidine-1-carbonyl)pyrimidine-2-carbonitrile]
310 | COc1cc(C(=O)N2C[C@H]3CC[C@@H]2[C@@H]3N)cc2nc(-c3cc4cccnc4n3C)n(C[C@@H]3CCN(c4ncccn4)C3)c12 [Example 232, (1R,4R,7R)-2-(7-methoxy-2-{1-methyl-1H-pyrrolo[2,3-b]pyridin-2-yl}-1-{[(3S)-1-(pyrimidin-2-yl)pyrrolidin-3-yl]methyl}-1H-1,3-benzodiazole-5-carbonyl)-2-azabicyclo[2.2.1]heptan-7-amine]
109 | COc1cc(C(=O)N2CC3CCC2[C@@H]3N)cc2nc(-c3cc4cccnc4n3CC3CC3)n(Cc3cn(C)nc3C)c12 (stereo partly drawn) [Example 497, (7R)-2-{2-[1-(cyclopropylmethyl)-1H-pyrrolo[2,3-b]pyridin-2-yl]-1-[(1,3-dimethyl-1H-pyrazol-4-yl)methyl]-7-methoxy-1H-1,3-benzodiazole-5-carbonyl}-2-azabicyclo[2.2.1]heptan-7-amine]
14 | COc1cc(C(=O)N2C[C@H]3CC[C@@H]2[C@@H]3N)cc2nc(-c3cc4ccccc4n3CC3CC3)n(CC3CN(c4ccnc(C#N)n4)C3)c12 [Example 1, 4-(3-((5-((1R,4R,7R)-7-amino-2-azabicyclo[2.2.1]heptane-2-carbonyl)-2-(1-(cyclopropylmethyl)-1H-indol-2-yl)-7-methoxy-1H-benzo[d]imidazol-1-yl)methyl)azetidin-1-yl)pyrimidine-2-carbonitrile]
11 | COc1cc(C(=O)N2C[C@H]3CC[C@@H]2[C@@H]3N)cc2nc(-c3cc4ccccc4n3CC3CC3)n(CC3CN(C(=O)c4ccncc4)C3)c12 [Example 138, (1R,4R,7R)-2-{2-[1-(cyclopropylmethyl)-1H-indol-2-yl]-7-methoxy-1-{[1-(pyridine-4-carbonyl)azetidin-3-yl]methyl}-1H-1,3-benzodiazole-5-carbonyl}-2-azabicyclo[2.2.1]heptan-7-amine]
52 | COc1cc(C(=O)N2C[C@H]3CC[C@@H]2[C@@H]3N)cc2nc(-c3cc4cccnc4n3CC3CC3)n(CC3CN(C(=O)C4CCCC4)C3)c12 [Example 113, (1R,4R,7R)-2-{1-[(1-cyclopentanecarbonylazetidin-3-yl)methyl]-2-[1-(cyclopropylmethyl)-1H-pyrrolo[2,3-b]pyridin-2-yl]-7-methoxy-1H-1,3-benzodiazole-5-carbonyl]-2-azabicyclo[2.2.1]heptan-7-amine]
25 | COc1cc(C(=O)N2C[C@H]3CC[C@@H]2[C@@H]3N)cc2nc(-c3cc4ccccc4n3CC3CC3)n(CC3CN(C(=O)c4ccc(F)cc4)C3)c12 [Example 161, (1R,4R,7R)-2-{2-[1-(cyclopropylmethyl)-1H-indol-2-yl]-1-{[1-(4-fluorobenzoyl)azetidin-3-yl]methyl}-7-methoxy-1H-1,3-benzodiazole-5-carbonyl}-2-azabicyclo[2.2.1]heptan-7-amine]
922 | COc1cc(C(=O)N2CC3CCC2[C@@H]3N)cc2nc(-c3cc4cccnc4n3CC3CC3)n(C3CCN(c4ccnc(C)n4)CC3)c12 (stereo partly drawn) [Example 238, (1R.,4R,7R)-2-{2-[1-(cyclopropylmethyl)-1H-pyrrolo[2,3-b]pyridin-2-yl]-7-methoxy-1-[1-(2-methylpyrimidin-4-yl)piperidin-4-yl]-1H-1,3-benzodiazole-5-carbonyl}-2-azabicyclo[2.2.1]heptan-7-amine]
927 | COc1cc(C(=O)N2CC3CCC2[C@@H]3N)cc2nc(-c3cc4cccnc4n3CC3CC3)n(C3CCN(C(=O)c4ccnc(Cl)c4)CC3)c12 (stereo partly drawn) [Example 239, (1R,4R.,7R)-2-{1-[1-(2-chloropyridine-4-carbonyl)piperidin-4-yl]-2-[1-(cyclopropylmethyl)-1H-pyrrolo[2,3-b]pyridin-2-yl]-7-methoxy-1H-1,3-benzodiazole-5-carbonyl}-2-azabicyclo[2.2.1]heptan-7-amine]
98 | COc1cc(C(=O)N2CCC[C@@H](N)C2)cc2nc(-c3cc4ccccc4n3CC3CC3)n(Cc3cnn(C)c3)c12 [Example 267, (3R)-1-{2-[1-(cyclopropylmethyl)-1H-indol-2-yl]-7-methoxy-1-[(1-methyl-1H-pyrazol-4-yl)methyl]-1H-1,3-benzodiazole-5-carbonyl}piperidin-3-amine]
116 | COc1ncccc1-n1cc(Cn2c(-c3cc4cccnc4n3CC3CC3)nc3cc(C(=O)N4C[C@H](N)C[C@@H](F)C4)cc(OC)c32)cn1 [Example 343, (3R,5R)-1-{2-[1-(cyclopropylmethyl)-1H-pyrrolo[2,3-b]pyridin-2-yl]-7-methoxy-1-{[1-(2-methoxypyridin-3-yl)-1H-pyrazol-4-yl]methyl}-1H-1,3-benzodiazole-5-carbonyl}-5-fluoropiperidin-3-amine]
94 | COc1cc(C(=O)N2CC3CCC2[C@@H]3N)cc2nc(-c3cc4cccnc4n3CC3CC3)n(CC3CN(c4cc(Cl)cnc4C#N)C3)c12 (stereo partly drawn) [Example 38, 3-[3-({5-[(1R,4R,7R)-7-amino-2-azabicyclo[2.2.1]heptane-2-carbonyl]-2-[1-(cyclopropylmethyl)-1H-pyrrolo[2,3-b]pyridin-2-yl]-7-methoxy-1H-1,3-benzodiazol-l-yl}methyl)azetidin-1-yl]-5-chloropyridine-2-carbonitrile]
1280 | COc1cc(C(=O)N2CC3(CCCNC3)C2)cc2nc(-c3cc4ccccc4n3CC3CC3)n(Cc3cnn(C)c3)c12 [Example 288, 2-{2-[1-(cyclopropylmethyl)-1H-indol-2-yl]-7-methoxy-1-[(1-methyl-1H-pyrazol-4-yl)methyl]-1H-1,3-benzodiazole-5-carbonyl}-2,6-diazaspiro[3.5]nonane]
41 | COc1cc(C(=O)N2C[C@H]3CC[C@@H]2[C@@H]3N)cc2nc(-c3cc4ccccc4n3CC3CC3)n(Cc3cccs3)c12 [Example 256, (1R,4R,7R)-2-{2-[1-(cyclopropylmethyl)-1H-indol-2-yl]-7-methoxy-1-[(thiophen-2-yl)methyl]-1H-1,3-benzodiazole-5-carbonyl}-2-azabicyclo[2.2.1]heptan-7-amine]
34 | COc1cc(C(=O)N2CC3CCC2[C@@H]3N)cc2nc(-c3cc4ccccc4n3CC3CC3)n(CC3CN(C(=O)c4ccc(C#N)cn4)C3)c12 (stereo partly drawn) [Example 435, 6-[3-({5-[(7R)-7-amino-2-azabicyclo[2.2.1]heptane-2-carobnyl]-2-[1-(cyclopropylmethyl)-1H-indol-2-yl]-7-methoxy-1H-1,3-benzodiazol-1-yl}methyl)azetidine-1-carobnyl]pyridine-3-carbonitrile]
326 | COc1cc(C(=O)N2CC3CCC2[C@@H]3N)cc2nc(-c3cc4ccccc4n3CC3CC3)n(Cc3nc[nH]n3)c12 (stereo partly drawn) [Example 510, (7R)-2-{2-[1-(cyclopropylmethyl)-1H-indol-2-yl]-7-methoxy-1-[(1H-1,2,4-triazol-3-yl)methyl]-1H-1,3-benzodiazole-5-carbonyl}-2-azabicyclo[2.2.1]heptan-7-amine]
109 | COc1cc(C(=O)N2C[C@H]3CC[C@@H]2[C@@H]3N)cc2nc(-c3cc4cccnc4n3CC3CC3)n(CC3CN(C(=O)c4cnc(C#N)nc4)C3)c12 [Example 127, 5-[3-({5-[(1R,4R,7R)-7-amino-2-azabicyclo[2.2.1]heptane-2-carbonyl]-2-[1-(cyclopropylmethyl)-1H-pyrrolo[2,3-b]pyridin-2-yl]-7-methoxy-1H-1,3-benzodiazol-1-yl}methyl)azetidine-1-carbonyl]pyrimidine-2-carbonitrile]
402 | COc1cc(C(=O)N2CC3CCC2[C@@H]3N)cc2nc(-c3cc4cccnc4n3CC3CC3)n(CC3CCN(C(=O)c4ncccn4)CC3)c12 (stereo partly drawn) [Example 236, (1R,4R.,7R)-2-{2-[1-(cyclopropylmethyl)-1H-pyrrolo[2,3-b]pyridin-2-yl]-7-methoxy-1-{[1-(pyrimidine-2-carbonyl)piperidin-4-yl]methyl}-1H-1,3-benzodiazole-5-carbonyl}-2-azabicyclo[2.2.1]heptan-7-amine]

Molecule | IC50 [nM]
5-(4-((5-((1R,4R,7R)-7-amino-2-azabicyclo[2.2.1]heptane-2-carbonyl)-2-(1-(cyclopropylmethyl)-1H-pyrrolo[2,3-b]pyridin-2-yl)-7-methoxy-1H-benzo[d]imidazol-1-yl)methyl)piperdine-1-carbonyl)pyrimidine-2-carbonitrile [Example 194] | 74
